In the assay the test system is P. aeruginosa PAO10 LPS. Kind of assay: Endotoxemia (LPS challenge) model. Format: in vivo, C57Bl/6 mice. To be noted: 0.2 mg/kg i.p. 2 h prior to challenge. The method, then:
In particular, C57Bl/6 mice (10 per group) were dosed i.p. with mAb or PMB-mAb conjugate 6 h prior to challenge with P. aeruginosa PAO10 LPS (Sigma) and D-galactosamine. PMB control was dosed i.p. 2 h prior to challenge at 0.2 mg/kg and typically provides 80-100% protection. Control mice dosed with unconjugated CAM-003 all died within 18 h.
TM conjugates were dosed at 45, 15 and 5 mg/kg.

For the substance Polymyxin B [PMB, reference compound], the protection is given as 80-100%.

The values above are taken from patent US10370436B2, “Anti-pseudomonas Psl binding molecules and uses thereof” (priority 2011, dated 2019).
